Holding throughout (assay): cell-based
Design in all cases: NanoBRET live-cell target engagement; % occupancy from displacement of tracer K10 on NanoLuc-kinase fusions, mean n=3
Holding throughout (conditions): HEK293, read-out: % inhibition
(In general: In BRET a luciferase serves as donor, and the signal depends on an acceptor being close.)

Assay [1] concerns the target BRAF(V600E) (Homo sapiens, UniProt P15056, V600E). The procedure:
(§1) • 18. Prepare 10× test compounds in OptiMEM • a. Dilute the test compound to 1000× in DMSO (or the test compound solvent). […] Add 10μL per well of 10× test compound or 10μL of the DMSO control to the 96-well plates containing cells with 1× tracer. Mix on orbital shaker for 15 s at 900 rpm. • 20. Incubate the plate at 37°C + 5% CO2 incubator for 2hr. Allow plate to cool to RT for ∼15 min, then proceed to NanoBRET^TM Assay section below. • 21. Immediately before the BRET measurements, prepare 3× Complete NanoBRET^TM Nano-Glo® Substrate in OptiMEM without serum or phenol red. […] Mix gently by inverting 5–10 times in a conical tube. (The final concentration of Extracellular NanoLuc inhibitor in the 3× solution is 60 μM, for a working concentration of 20 μM.) • a. Note: 3× solutions should be used within 1.5 h after preparation. • 22. […] Incubate 2–3 min at RT. Following addition of NanoBRET^TM Nano-Glo® Substrate, measure donor emission (e.g., 450 nm) and acceptor emission (e.g., 610 nm or 630 nm) using a NanoBRET™-compatible luminometer. Fractional occupancy Quantitation • 2. Determine Fractional Occupancy with the following equation; % Occupancy = [1 – (X – Z)/( Y – Z)]∗100 • Where: • X = BRET in the presence of the test compound and tracer, • Y = BRET in the presence of the 100% BRET Control (Tracer + DMSO) • Z = BRET for the Zero BRET Control, e.g., • a. BRET from the NanoLuc Control Vector • b. BRET from Kinase/NanoLuc fusion + saturating dose of control test compound.

Assay [2] deals with BRSK1 (Homo sapiens, UniProt Q8TDC3). The procedure:
as §1

In assay [3] the target is CDK15 (Homo sapiens, UniProt Q96Q40). Here is the method: as §1
The target in assay [4] is CDK4 (Homo sapiens, UniProt P11802). Here is the method:
as §1

Assay [5] addresses CDKL1 (Homo sapiens, UniProt Q00532). The procedure: as §1
Assay [6] has as its target GAK (Homo sapiens, UniProt O14976). The procedure:
as §1

Assay [7] has as its target IGF1R (Homo sapiens, UniProt P08069). Here is the method:
as §1

For assay [8], the target named is IRAK3 (Homo sapiens, UniProt Q9Y616). Here is the method:
as §1

For assay [9], the target named is JAK3 (Homo sapiens, UniProt P52333). The procedure:
as §1

Assay [10] addresses LATS1 (Homo sapiens, UniProt O95835). The procedure:
as §1

In assay [11] the target is MAP3K10 (Homo sapiens, UniProt Q02779). Here is the method:
as §1

Assay [12] concerns the target MAP4K1 (Homo sapiens, UniProt Q92918). The procedure:
as §1

Assay [13] has as its target MAPK9 (Homo sapiens, UniProt P45984). Here is the method:
as §1

The target of assay [14] is MELK (Homo sapiens, UniProt Q14680). Here is the method: as §1
Assay [15] concerns the target MYLK2 (Homo sapiens, UniProt Q9H1R3). The procedure: as §1
Assay [16] concerns the target NEK1 (Homo sapiens, UniProt Q96PY6). Here is the method: as §1
Assay [17] has as its target PRKACB (Homo sapiens, UniProt P22694). Here is the method: as §1
Assay [18] concerns the target TEC (Homo sapiens, UniProt P42680). The procedure: as §1

In general, inhibition refers to the relative decrease from the control value, in per cent.

Chain of CDK4 (P11802 whole entry): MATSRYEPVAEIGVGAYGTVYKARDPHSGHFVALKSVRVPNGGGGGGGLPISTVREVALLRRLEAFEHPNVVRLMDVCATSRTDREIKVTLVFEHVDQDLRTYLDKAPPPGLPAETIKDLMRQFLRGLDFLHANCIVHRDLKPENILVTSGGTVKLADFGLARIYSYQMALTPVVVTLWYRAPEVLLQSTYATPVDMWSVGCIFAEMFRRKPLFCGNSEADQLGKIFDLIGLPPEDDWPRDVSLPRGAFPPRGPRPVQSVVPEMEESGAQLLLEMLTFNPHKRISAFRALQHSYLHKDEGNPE
Chain of IRAK3 (Q9Y616 whole entry): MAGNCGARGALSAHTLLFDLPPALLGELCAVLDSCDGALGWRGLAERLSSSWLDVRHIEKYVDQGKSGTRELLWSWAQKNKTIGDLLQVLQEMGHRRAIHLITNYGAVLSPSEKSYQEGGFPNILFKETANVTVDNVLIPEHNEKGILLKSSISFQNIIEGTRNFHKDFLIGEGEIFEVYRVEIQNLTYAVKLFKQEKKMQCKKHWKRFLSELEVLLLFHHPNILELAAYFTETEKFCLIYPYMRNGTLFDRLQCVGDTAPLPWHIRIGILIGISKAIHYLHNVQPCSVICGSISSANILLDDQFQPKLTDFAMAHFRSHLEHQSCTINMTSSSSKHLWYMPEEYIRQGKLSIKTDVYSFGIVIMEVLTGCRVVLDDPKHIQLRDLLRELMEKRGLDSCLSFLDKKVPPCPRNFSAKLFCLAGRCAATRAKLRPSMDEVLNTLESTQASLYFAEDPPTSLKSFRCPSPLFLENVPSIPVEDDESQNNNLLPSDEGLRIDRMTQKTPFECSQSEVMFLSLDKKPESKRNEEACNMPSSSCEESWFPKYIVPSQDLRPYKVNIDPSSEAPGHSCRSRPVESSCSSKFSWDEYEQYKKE
Chain of NEK1 (Q96PY6 whole entry): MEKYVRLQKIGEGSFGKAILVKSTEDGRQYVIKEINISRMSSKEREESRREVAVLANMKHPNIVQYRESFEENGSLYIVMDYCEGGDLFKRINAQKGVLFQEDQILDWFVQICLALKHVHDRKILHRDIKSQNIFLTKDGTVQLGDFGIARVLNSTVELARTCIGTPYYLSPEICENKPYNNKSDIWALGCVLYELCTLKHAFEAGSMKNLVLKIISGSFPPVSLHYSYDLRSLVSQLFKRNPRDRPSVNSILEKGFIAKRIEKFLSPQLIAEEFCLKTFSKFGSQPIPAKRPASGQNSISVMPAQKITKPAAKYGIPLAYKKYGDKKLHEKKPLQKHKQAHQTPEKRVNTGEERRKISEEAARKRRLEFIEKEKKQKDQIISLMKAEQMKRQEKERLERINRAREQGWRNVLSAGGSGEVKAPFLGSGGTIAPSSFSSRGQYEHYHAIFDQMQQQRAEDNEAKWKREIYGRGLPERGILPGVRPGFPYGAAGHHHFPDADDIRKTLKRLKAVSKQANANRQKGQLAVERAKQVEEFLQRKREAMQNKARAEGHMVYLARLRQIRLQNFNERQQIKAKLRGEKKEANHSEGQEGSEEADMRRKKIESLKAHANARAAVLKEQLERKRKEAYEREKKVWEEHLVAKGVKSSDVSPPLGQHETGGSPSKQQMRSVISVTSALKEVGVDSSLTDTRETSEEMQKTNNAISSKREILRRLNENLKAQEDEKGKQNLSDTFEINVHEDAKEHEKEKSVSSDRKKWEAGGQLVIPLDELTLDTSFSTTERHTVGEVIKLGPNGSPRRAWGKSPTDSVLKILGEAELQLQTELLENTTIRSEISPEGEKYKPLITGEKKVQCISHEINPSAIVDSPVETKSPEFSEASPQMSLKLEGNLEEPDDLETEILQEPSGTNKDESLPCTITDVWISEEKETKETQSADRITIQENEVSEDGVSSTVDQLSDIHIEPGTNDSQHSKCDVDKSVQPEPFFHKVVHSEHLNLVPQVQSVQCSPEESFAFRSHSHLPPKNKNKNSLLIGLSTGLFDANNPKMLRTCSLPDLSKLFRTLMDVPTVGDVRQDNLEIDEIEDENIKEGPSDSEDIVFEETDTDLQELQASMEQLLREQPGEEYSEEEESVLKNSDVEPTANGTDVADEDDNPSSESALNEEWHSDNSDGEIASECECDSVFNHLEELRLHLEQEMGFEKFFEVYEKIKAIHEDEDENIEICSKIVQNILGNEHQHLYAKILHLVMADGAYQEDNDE
Chain of CDKL1 (Q00532 whole entry): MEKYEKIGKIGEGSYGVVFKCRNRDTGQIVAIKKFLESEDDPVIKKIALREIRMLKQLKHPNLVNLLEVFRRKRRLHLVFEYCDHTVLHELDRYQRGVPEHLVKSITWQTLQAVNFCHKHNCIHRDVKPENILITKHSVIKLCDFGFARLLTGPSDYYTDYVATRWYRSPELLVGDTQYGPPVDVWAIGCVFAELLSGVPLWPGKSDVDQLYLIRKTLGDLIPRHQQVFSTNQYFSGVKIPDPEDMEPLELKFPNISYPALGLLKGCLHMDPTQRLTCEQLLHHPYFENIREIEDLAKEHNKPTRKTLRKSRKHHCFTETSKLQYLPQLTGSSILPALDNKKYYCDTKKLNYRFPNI
Chain of MAPK9 (P45984 whole entry): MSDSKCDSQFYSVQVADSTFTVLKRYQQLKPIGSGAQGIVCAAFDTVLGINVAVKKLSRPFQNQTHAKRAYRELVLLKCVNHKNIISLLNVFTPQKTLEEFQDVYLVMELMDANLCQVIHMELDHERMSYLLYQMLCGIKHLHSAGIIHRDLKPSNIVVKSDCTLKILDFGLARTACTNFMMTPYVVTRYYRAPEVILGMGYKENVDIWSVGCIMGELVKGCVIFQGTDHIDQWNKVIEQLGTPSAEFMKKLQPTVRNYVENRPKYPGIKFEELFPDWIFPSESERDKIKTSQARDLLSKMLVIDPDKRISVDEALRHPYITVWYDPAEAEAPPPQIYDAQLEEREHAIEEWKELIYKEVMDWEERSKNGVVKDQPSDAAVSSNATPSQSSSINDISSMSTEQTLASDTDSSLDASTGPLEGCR
Chain of MAP3K10 (Q02779 whole entry): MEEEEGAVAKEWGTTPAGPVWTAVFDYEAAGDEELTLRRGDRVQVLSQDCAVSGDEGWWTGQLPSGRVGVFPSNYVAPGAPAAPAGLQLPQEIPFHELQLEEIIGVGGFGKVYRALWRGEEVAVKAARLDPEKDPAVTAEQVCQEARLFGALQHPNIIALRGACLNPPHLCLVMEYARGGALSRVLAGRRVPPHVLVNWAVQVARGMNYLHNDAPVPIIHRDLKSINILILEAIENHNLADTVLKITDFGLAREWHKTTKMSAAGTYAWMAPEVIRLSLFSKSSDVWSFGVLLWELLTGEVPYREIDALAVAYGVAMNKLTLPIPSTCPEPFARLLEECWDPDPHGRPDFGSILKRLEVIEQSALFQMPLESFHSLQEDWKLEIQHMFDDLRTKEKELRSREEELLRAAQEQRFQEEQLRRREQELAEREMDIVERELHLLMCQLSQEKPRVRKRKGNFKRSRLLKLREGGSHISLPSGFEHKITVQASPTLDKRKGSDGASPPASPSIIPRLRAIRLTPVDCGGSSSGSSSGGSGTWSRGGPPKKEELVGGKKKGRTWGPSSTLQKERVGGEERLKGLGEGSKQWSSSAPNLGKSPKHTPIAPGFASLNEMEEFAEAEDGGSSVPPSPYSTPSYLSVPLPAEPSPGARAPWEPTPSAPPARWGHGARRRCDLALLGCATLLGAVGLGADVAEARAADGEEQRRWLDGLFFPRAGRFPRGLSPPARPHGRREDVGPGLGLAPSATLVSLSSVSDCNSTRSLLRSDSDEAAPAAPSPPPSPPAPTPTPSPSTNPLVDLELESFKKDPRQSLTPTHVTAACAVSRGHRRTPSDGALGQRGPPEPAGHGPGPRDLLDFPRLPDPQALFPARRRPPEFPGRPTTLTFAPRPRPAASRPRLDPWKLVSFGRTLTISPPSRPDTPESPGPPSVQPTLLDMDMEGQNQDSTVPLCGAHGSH
Chain of MELK (Q14680 whole entry): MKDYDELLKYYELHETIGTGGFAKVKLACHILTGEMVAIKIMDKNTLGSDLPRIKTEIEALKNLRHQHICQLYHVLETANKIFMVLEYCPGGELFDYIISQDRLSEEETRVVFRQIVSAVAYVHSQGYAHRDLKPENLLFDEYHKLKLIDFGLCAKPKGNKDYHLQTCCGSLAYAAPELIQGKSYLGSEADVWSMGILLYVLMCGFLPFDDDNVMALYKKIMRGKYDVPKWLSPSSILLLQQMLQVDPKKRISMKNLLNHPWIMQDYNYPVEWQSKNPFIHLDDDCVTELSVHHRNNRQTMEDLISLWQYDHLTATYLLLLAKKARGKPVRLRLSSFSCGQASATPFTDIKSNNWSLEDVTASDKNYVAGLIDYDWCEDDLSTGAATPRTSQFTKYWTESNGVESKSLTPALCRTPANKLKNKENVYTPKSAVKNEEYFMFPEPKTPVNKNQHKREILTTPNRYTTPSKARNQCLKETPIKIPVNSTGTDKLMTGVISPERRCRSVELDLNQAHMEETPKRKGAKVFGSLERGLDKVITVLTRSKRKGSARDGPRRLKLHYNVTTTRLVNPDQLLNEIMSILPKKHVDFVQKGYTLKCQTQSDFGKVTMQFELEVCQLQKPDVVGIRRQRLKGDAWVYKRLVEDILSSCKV
Chain of CDK15 (Q96Q40 whole entry): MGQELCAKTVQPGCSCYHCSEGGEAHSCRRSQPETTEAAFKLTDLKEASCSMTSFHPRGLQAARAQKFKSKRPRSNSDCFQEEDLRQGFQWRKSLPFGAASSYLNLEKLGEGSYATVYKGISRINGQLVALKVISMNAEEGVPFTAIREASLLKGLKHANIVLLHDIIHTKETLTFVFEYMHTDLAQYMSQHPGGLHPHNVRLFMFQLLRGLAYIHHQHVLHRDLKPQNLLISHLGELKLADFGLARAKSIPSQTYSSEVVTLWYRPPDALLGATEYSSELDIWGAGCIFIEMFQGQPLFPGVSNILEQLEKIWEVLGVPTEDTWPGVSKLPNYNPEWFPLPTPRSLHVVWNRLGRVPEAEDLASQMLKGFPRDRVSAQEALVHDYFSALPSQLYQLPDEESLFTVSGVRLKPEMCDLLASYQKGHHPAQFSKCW

As for `C[C@@H](Oc1cc(-c2cnn(C3CCNCC3)c2)cnc1N)c1c(Cl)ccc(F)c1Cl` [crizotinib], the inhibition at 1 µM in assay [1] was -4%; in assay [2] it was -1%; in assay [3] it was 3%; in assay [4] it was 4%; in assay [5], 2%; in [6] it was -14%. Further, the inhibition at 1 µM in assay [7] is 18%; in assay [8] it was 42%; in [9], 2%; in assay [10] it was -10%; in [11], -1%; in [12], 14%. Besides, the inhibition at 1 µM was -11% in [13]; -2% in assay [14]; -16% in assay [15]; 3% in assay [16]; 5% in [17]; -7% in assay [18].

The values above are taken from article PMC8449129, “Single tracer-based protocol for broad-spectrum kinase profiling in live cells with NanoBRET” (STAR Protocols, 2021).
